# Test results: patent US20100137449A1, “SUBSTITUTED 1,3-CYCLOPENTADIONE MULTI-TARGET PROTEIN KINASE MODULATORS OF CANCER, ANGIOGENESIS AND THE INFLAMMATORY PATHWAYS ASSOCIATED THEREWITH” (METAPROTEOMICS, LLC, priority 2007, published 2010)
# What was measured:
# Experiment in all cases: KinaseProfiler Assay
# Abl(h) = Abl(h) (Homo sapiens, UniProt P00519)
# BrSK2(h) = biological target: T1, BrSK2(h) (Homo sapiens, UniProt Q8IWQ3)
# T1 sequence (Q8IWQ3 1-736): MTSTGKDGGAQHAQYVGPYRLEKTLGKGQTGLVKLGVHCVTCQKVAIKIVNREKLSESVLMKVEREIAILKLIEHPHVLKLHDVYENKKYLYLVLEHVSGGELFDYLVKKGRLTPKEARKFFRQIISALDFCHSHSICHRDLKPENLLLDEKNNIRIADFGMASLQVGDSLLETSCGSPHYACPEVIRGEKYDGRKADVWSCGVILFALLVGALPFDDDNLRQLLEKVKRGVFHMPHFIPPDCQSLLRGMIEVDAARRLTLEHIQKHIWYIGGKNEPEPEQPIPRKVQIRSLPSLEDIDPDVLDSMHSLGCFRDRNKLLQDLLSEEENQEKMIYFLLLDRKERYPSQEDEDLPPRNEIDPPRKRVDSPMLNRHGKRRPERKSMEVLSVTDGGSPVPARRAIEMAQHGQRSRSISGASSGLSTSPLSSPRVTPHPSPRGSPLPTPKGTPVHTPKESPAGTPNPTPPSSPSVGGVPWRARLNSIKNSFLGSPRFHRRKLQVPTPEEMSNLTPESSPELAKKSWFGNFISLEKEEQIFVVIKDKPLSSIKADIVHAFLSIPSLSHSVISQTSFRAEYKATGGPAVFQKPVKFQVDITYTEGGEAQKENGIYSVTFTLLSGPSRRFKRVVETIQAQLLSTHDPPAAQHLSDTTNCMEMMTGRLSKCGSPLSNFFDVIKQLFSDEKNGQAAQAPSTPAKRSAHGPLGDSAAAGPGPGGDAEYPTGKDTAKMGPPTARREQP
# EphA8(h) = biological target: T2, EphA8(h) (Homo sapiens, UniProt P29322)
# T2 sequence (P29322 28-1005): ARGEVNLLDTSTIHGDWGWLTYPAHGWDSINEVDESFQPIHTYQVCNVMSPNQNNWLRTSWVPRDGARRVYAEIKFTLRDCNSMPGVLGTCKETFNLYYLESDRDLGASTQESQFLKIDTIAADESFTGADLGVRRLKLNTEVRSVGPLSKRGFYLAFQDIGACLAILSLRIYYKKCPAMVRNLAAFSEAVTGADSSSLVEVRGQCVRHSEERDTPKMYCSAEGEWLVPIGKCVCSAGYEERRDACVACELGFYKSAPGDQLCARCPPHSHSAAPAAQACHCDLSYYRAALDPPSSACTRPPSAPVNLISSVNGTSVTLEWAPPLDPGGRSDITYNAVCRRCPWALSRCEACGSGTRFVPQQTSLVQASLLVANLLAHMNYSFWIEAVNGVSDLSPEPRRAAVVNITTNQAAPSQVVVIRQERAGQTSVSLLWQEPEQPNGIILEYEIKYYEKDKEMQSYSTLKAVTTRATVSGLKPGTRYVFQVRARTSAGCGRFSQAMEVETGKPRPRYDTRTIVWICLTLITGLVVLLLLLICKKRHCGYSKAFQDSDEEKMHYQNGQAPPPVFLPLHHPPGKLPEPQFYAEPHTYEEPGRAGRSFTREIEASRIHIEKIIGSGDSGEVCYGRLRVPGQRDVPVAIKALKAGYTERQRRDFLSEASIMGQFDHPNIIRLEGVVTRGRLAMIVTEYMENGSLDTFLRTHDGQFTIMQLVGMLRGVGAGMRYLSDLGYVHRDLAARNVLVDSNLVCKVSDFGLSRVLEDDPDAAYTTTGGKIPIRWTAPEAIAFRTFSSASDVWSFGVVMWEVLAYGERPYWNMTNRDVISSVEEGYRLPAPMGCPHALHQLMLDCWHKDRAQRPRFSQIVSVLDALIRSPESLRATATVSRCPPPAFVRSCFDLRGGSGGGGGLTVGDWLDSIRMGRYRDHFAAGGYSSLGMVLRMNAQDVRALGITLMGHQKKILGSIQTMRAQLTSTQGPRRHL
# Fgr(h) = Fgr(h) (Homo sapiens, UniProt P09769)
# Flt1(h) = Flt1(h) (Homo sapiens, UniProt P17948)
# MRCKβ(h) = MRCKβ(h) (Homo sapiens, UniProt Q9Y5S2)
# NEK7(h) = NEK7(h) (Homo sapiens, UniProt Q8TDX7)
# NEK7(h), sequence (Q8TDX7 whole entry): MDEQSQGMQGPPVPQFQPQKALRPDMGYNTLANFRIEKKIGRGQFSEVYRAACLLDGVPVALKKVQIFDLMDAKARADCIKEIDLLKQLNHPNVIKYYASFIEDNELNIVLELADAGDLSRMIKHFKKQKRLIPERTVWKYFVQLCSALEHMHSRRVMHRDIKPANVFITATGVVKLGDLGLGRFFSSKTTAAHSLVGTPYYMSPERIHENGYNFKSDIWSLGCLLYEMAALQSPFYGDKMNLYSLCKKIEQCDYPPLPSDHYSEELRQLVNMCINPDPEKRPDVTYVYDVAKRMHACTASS
# Abl(h), sequence (P00519 whole entry): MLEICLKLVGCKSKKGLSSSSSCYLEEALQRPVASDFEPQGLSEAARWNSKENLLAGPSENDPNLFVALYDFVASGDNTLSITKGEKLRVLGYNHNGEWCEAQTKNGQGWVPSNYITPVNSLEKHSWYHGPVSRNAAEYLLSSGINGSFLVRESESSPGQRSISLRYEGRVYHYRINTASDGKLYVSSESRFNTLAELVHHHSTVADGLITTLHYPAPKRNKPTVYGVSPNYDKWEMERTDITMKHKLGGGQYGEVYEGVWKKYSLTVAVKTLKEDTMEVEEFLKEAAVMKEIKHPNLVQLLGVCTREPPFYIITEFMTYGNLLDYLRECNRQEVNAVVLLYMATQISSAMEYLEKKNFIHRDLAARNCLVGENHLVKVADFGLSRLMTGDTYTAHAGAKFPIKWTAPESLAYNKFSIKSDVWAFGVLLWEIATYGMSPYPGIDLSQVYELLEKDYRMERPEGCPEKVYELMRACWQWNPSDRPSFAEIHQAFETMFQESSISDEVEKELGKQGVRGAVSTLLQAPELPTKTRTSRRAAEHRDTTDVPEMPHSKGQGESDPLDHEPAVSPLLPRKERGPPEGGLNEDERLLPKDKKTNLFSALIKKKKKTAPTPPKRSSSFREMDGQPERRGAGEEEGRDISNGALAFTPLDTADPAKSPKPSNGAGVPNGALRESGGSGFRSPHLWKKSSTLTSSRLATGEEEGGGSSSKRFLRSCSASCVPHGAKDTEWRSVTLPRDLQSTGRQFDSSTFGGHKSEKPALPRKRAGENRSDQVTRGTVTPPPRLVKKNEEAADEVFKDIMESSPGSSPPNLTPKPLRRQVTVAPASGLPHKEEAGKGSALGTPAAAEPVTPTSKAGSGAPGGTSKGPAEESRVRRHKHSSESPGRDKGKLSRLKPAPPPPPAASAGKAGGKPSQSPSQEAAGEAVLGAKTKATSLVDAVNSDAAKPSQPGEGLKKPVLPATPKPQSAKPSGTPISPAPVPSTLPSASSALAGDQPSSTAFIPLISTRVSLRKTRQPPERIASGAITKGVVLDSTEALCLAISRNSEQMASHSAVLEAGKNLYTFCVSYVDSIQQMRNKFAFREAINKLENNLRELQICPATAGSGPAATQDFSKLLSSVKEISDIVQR
# Flt1(h), sequence (P17948 27-1338): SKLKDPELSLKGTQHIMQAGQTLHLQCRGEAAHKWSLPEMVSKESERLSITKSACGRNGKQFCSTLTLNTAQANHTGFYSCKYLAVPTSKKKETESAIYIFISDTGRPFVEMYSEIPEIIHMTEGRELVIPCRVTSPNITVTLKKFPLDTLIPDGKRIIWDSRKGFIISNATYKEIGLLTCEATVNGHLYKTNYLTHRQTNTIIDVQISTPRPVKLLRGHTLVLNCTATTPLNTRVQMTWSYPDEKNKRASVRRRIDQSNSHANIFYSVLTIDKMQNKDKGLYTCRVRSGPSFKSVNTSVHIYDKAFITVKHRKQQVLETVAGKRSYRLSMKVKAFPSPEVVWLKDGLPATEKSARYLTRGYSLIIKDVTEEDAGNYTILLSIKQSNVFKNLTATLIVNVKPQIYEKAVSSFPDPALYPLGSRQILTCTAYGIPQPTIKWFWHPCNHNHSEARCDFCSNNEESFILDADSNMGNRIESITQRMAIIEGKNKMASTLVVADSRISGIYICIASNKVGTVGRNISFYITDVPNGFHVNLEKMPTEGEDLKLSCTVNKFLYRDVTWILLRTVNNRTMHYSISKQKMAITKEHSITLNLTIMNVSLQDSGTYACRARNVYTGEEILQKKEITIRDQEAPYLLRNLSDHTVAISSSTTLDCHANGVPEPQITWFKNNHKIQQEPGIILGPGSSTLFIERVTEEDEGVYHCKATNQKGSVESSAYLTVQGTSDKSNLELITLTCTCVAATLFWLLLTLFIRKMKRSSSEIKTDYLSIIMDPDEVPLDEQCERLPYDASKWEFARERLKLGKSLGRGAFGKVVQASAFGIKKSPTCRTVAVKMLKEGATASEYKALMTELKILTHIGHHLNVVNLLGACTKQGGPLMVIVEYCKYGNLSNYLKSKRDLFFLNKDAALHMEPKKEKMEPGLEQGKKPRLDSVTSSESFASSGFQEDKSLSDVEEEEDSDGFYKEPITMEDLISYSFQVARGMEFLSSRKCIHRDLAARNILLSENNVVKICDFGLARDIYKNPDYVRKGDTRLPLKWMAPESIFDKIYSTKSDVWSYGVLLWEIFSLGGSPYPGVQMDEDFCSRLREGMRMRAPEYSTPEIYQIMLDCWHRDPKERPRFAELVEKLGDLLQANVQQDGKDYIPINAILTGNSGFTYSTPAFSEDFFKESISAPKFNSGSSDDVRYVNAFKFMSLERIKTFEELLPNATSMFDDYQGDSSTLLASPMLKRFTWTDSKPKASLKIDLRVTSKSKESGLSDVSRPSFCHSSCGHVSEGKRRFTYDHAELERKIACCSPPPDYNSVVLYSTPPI
# MRCKβ(h), sequence (Q9Y5S2 whole entry): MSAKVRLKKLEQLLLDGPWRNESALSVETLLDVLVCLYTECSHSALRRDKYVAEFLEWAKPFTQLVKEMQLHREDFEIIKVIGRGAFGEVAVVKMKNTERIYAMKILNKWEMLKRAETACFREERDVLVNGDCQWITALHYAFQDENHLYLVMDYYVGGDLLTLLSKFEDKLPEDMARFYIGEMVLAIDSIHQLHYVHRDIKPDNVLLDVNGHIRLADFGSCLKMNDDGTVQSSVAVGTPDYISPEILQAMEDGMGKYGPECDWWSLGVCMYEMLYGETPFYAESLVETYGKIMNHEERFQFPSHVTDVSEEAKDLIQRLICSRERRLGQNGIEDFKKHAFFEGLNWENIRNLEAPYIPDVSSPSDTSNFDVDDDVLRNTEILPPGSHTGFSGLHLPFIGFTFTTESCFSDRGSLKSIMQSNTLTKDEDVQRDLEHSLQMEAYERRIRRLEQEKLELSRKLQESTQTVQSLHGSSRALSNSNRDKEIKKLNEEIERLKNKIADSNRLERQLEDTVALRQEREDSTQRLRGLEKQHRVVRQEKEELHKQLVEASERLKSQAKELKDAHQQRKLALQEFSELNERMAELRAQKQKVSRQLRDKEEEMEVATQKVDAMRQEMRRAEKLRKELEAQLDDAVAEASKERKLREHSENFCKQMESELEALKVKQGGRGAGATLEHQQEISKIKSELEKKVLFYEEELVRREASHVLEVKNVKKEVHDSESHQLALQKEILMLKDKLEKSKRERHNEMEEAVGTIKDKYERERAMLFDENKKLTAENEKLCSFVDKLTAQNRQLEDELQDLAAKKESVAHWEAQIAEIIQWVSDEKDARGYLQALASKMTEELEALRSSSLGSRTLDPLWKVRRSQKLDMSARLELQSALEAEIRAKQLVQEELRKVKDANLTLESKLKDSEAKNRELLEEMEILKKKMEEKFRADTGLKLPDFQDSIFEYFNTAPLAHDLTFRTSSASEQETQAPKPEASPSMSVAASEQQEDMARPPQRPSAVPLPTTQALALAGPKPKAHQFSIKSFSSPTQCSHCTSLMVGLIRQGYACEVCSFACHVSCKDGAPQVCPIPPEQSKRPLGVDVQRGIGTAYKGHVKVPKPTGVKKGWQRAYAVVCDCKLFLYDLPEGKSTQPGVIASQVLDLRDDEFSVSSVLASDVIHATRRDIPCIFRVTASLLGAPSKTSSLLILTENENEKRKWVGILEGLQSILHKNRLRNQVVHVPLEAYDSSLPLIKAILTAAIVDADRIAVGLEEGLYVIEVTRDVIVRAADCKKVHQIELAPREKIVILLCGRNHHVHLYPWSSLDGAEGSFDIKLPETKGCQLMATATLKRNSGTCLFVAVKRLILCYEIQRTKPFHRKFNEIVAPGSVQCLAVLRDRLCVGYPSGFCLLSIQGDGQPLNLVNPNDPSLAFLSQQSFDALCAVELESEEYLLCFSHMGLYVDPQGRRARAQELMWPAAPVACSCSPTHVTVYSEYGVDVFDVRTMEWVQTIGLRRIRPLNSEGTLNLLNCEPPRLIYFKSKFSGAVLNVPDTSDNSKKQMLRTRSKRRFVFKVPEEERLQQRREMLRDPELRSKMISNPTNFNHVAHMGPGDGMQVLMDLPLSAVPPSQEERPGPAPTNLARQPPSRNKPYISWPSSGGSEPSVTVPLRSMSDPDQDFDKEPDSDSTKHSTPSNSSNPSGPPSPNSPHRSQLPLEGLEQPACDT
# Fgr(h), sequence (P09769 whole entry): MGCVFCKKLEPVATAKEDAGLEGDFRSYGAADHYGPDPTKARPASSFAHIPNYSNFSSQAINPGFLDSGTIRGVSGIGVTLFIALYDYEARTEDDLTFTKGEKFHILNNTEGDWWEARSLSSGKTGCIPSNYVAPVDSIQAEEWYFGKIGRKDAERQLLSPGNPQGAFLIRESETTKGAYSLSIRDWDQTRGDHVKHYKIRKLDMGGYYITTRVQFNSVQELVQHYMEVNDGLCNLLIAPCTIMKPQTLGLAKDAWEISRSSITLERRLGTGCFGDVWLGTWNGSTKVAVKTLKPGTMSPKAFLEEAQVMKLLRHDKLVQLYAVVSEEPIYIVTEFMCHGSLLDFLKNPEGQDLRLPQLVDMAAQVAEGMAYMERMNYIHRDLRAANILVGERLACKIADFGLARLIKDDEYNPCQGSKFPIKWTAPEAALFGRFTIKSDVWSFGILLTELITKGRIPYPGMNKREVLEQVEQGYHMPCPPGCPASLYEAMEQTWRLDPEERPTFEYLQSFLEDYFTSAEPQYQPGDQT
smiles,measurement,setting,value
"CC(C)CCC(=O)[C@]1(O)C(O)=C(C(=O)C(C)C)C(=O)[C@H]1CCC(C)C [TH2, tetrahydroiso-cohumulone]",kinase inhibition,Abl(h); 1 μg/ml,92% of control
same,kinase inhibition,Abl(h); 5 μg/ml,87% of control
same,kinase inhibition,Abl(h); 25 μg/ml,70% of control
same,kinase inhibition,Abl(h); 50 μg/ml,64% of control
same,kinase inhibition,Abl(h); 100 μg/ml,40% of control
same,kinase inhibition,BrSK2(h); 1 μg/ml,99% of control
same,kinase inhibition,BrSK2(h); 5 μg/ml,90% of control
same,kinase inhibition,BrSK2(h); 25 μg/ml,84% of control
same,kinase inhibition,BrSK2(h); 50 μg/ml,83% of control
same,kinase inhibition,BrSK2(h); 100 μg/ml,72% of control
same,kinase inhibition,EphA8(h); 1 μg/ml,118% of control
same,kinase inhibition,EphA8(h); 5 μg/ml,99% of control
same,kinase inhibition,EphA8(h); 25 μg/ml,112% of control
same,kinase inhibition,EphA8(h); 50 μg/ml,101% of control
same,kinase inhibition,EphA8(h); 100 μg/ml,100% of control
same,kinase inhibition,Fgr(h); 1 μg/ml,95% of control
same,kinase inhibition,Fgr(h); 5 μg/ml,96% of control
same,kinase inhibition,Fgr(h); 25 μg/ml,112% of control
same,kinase inhibition,Fgr(h); 50 μg/ml,106% of control
same,kinase inhibition,Fgr(h); 100 μg/ml,86% of control
same,kinase inhibition,Flt1(h); 1 μg/ml,102% of control
same,kinase inhibition,Flt1(h); 5 μg/ml,97% of control
same,kinase inhibition,Flt1(h); 25 μg/ml,103% of control
same,kinase inhibition,Flt1(h); 50 μg/ml,102% of control
same,kinase inhibition,Flt1(h); 100 μg/ml,98% of control
same,kinase inhibition,MRCKβ(h); 1 μg/ml,110% of control
same,kinase inhibition,MRCKβ(h); 5 μg/ml,114% of control
same,kinase inhibition,MRCKβ(h); 25 μg/ml,109% of control
same,kinase inhibition,MRCKβ(h); 50 μg/ml,104% of control
same,kinase inhibition,MRCKβ(h); 100 μg/ml,99% of control
same,kinase inhibition,NEK7(h); 1 μg/ml,103% of control
same,kinase inhibition,NEK7(h); 5 μg/ml,107% of control
same,kinase inhibition,NEK7(h); 25 μg/ml,98% of control
same,kinase inhibition,NEK7(h); 50 μg/ml,95% of control
same,kinase inhibition,NEK7(h); 100 μg/ml,84% of control
